Test results from US20220202824A1, “Methods for Treating Centronuclear Myopathy” (Stemline Therapeutics, Inc., priority 2018, published 2022).
Like-named read-outs stand apart in the source and are kept apart here. Values belong to the compound of their own block, whether it stands above or below them.

What was measured:
PIK3C2B = PIK3C2B (Homo sapiens, UniProt O00750); conditions: cited from earlier work; for IC50: read-out: IC50 for PIK3C2B
PI3Kβ = PI3Kβ (Homo sapiens, UniProt P42338); conditions: literature value; read-out: IC50 for other PI3Ks: PI3Kβ; cited from earlier work
PIK3C2B (PI3K-C2 beta) = PIK3C2B (PI3K-C2 beta) (Homo sapiens, UniProt O00750); assay: SelectScreen Adapta universal kinase assay, PIK3C2B; assay type: biochemical; conditions: for inhibition at 51 pM / inhibition at 0.000153 µM / inhibition at 0.00046 µM / inhibition at 0.00137 µM / inhibition at 0.0041 µM / inhibition at 0.0123 µM / inhibition at 0.037 µM / inhibition at 0.111 µM / inhibition at 0.333 µM / inhibition at 1 µM: PIK3C2B; for inhibition at 51 pM: Test Compound 0.051 nM; for inhibition at 0.000153 µM: Test Compound 0.153 nM; for inhibition at 0.00046 µM: Test Compound 0.46 nM; for inhibition at 0.00137 µM: Test Compound 1.37 nM; for inhibition at 0.0041 µM: Test Compound 4.1 nM; for inhibition at 0.0123 µM: Test Compound 12.3 nM; for inhibition at 0.037 µM: Test Compound 37 nM; for inhibition at 0.111 µM: Test Compound 111 nM; for inhibition at 0.333 µM: Test Compound 333 nM; for inhibition at 1 µM: Test Compound 1000 nM
Method: (§1) Kinase activities of PIK3C2B (and PIK3C2A for comparison) were obtained using the SelectScreen™ Profiling Service (Invitrogen) based on Adapta™ universal kinase assay protocol and conditions (Invitrogen Corporation, Cat. No. PV5099).
(§2) Adapta™ universal kinase assay: The assay itself can be divided into two phases: a kinase reaction phase, and an ADP detection phase. In the kinase reaction phase, all components required for the kinase reaction are added to the well, and the reaction is allowed to incubate for 60 minutes. After the reaction, a detection solution consisting of a europium labeled anti-ADP antibody, an Alexa Fluor™ 647 labeled ADP tracer, and EDTA (to stop the kinase reaction) is added to the assay well. ADP formed by the kinase reaction (in the absence of an inhibitor) displaces the Alexa Fluor® 647 labeled ADP tracer from the antibody, resulting in a decrease in the TR-FRET signal. In the presence of an inhibitor, the amount of ADP formed by the kinase reaction is reduced, and the resulting intact antibody-tracer interaction results in a high TR-FRET signal. ADP formation is determined by calculating the emission ratio from the assay well.
(§3) The emission ratio is calculated by dividing the intensity of the tracer (acceptor) emission by the intensity of the Eu (donor) emission at 615 nm as shown in the equation below. Emission Ratio=AlexaFluor™647 Emission (665 nm)/Europium Emission (615 nm).
(§4) The Test Compound was screened in 1% DMSO (final solution). For 10-point titrations, 3-fold serial dilutions were conducted from the starting concentrations of 20,000 nM for PIK3C2A and 1,000 nM for PIK3C2B.
For PIK3C2B (PI3K-C2 beta), the 2×PIK3C2B (PI3K-C2 beta)/PI mixture was prepared in 100 mM HEPES pH 7.5, 200 mM NaCl, 0.06% CHAPS, 6 mM MgCl2, 2 mM EGTA. The final 10 μL Kinase Reaction has 8 ng PIK3C2B (PI3K-C2 beta) and 100 μM PI in 57.5 mM HEPES pH 7.5, 100 mM NaCl, 0.03% CHAPS, 3 mM MgCl2, 1 mM EGTA. After the 1 hour Kinase Reaction incubation, 5 μL of Detection Mix was added.
(§5) All ATP Solutions were diluted to a 4× working concentration in water. ATP Km (apparent) was previously determined using a radiometric assay except when no substrate is available in which case an Adapta™ assay was conducted.
(§6) The Detection Mix was prepared in TR-FRET Dilution Buffer. The Detection mix consists of EDTA (30 mM), Eu-anti-ADP antibody (30 nM) and ADP tracer. The detection mix contains the EC60 concentration of tracer for 5-100 μM ATP.
(§7) Adapta™ assay protocol: 2.5 μL 4× Test Compound or 100 nL 100× plus 2.4 μL kinase buffer was dispensed onto white 384-well small volume polystyrene plate (Corning, Cat. No. 3674). Then 2.5 μL of 4×ATP Solution followed by 5 μL of 2× Substrate/Kinase Mixture were added. The final 10 μL Kinase Reaction has 8 ng PIK3C2B (PI3K-C2 beta) and 100 μM PI in 57.5 mM HEPES pH 7.5, 100 mM NaCl, 0.03% CHAPS, 3 mM MgCl2, 1 mM EGTA After 30 seconds plate shake and 2-minutes centrifugation at 1000×g for 2 minutes, Kinase Reaction incubation was performed at room temperature for 60 minutes.
(§8) After the Kinase Reaction incubation, 5 μL of Detection Mix was added. After 30 seconds plate shake and 2-minutes centrifugation at 1000×g for 2 minutes, Detection Mix equilibration incubation was performed at room temperature for 60 minutes.
(§9) Adapta™ data analysis: The fluorescent data obtained was analyzed using a data fitting program, XLfit (ID Business Solutions, Guildford, UK). IC50 values were derived by fitting a sigmoidal dose-response curve to a plot of assay readout over inhibitor concentration.

PIK3C2A (PI3K-C2 alpha) = PIK3C2A (PI3K-C2 alpha) (Homo sapiens, UniProt O00443); assay: SelectScreen Adapta universal kinase assay, PIK3C2A; assay type: biochemical; conditions: [ATP] 10 uM; for inhibition at 0.00101 µM / inhibition at 0.00303 µM / inhibition at 0.0091 µM / inhibition at 0.0273 µM / inhibition at 0.082 µM / inhibition at 0.247 µM / inhibition at 0.741 µM / inhibition at 2.222 µM / inhibition at 6.667 µM / inhibition at 20 µM: PIK3C2A; for inhibition at 0.00101 µM: Test Compound 1.01 nM; for inhibition at 0.00303 µM: Test Compound 3.03 nM; for inhibition at 0.0091 µM: Test Compound 9.1 nM; for inhibition at 0.0273 µM: Test Compound 27.3 nM; for inhibition at 0.082 µM: Test Compound 82 nM; for inhibition at 0.247 µM: Test Compound 247 nM; for inhibition at 0.741 µM: Test Compound 741 nM; for inhibition at 2.222 µM: Test Compound 2222 nM; for inhibition at 6.667 µM: Test Compound 6667 nM; for inhibition at 20 µM: Test Compound 20000 nM
Method: as §1, §2, §3, §4
For PIK3C2A (PI3K-C2 alpha), the 2×PIK3C2A (PI3K-C2 alpha)/PI mixture was prepared in a Kinase Buffer including […] pH 7.5, 200 mM NaCl, 0.06% CHAPS, 6 mM MgCl2, 2 mM EGTA. The final 10 μL Kinase Reaction has 8 ng PIK3C2A (PI3K-C2 alpha) and 100 μM PI in 57.5 mM HEPES pH 7.5, 100 mM NaCl, 0.03% CHAPS, 3 mM MgCl2, 1 mM EGTA. After the 1 hour Kinase Reaction incubation, 5 μL of Detection Mix was added.
as §5, §6, §7, §8, §9

395 kinases = assay: KINOMEscan competitive binding profiling assay of 395 kinases (Ambit Biosciences); conditions: single concentration 10 μM
Description: Initially, 3-{[(3S)-4-(6,6-dimethyl-4-oxo-4,5,6,7-tetrahydro[1,3]thiazolo[5,4-c]pyridin-2-yl)morpholin-3-yl]methyl}-N,N,1-trimethyl-1H-indole-5-carboxamide (referred as Test Compound here in Example 2) was screened against kinase targets representing diverse protein kinase family members for competitive binding using a commercially available profiling assay of 395 kinases (Ambit Biosciences, KINOMEscan), and the compound was found most likely to inhibit the kinase activity of PI3Ks compared to other kinases.

[1] = [ATP] 10 uM, read-out: % Inhibition point 1
[2] = [ATP] 10 uM, read-out: % Inhibition point 2

PIK3C2A (PI3K-C2 alpha), sequence (O00443 whole entry): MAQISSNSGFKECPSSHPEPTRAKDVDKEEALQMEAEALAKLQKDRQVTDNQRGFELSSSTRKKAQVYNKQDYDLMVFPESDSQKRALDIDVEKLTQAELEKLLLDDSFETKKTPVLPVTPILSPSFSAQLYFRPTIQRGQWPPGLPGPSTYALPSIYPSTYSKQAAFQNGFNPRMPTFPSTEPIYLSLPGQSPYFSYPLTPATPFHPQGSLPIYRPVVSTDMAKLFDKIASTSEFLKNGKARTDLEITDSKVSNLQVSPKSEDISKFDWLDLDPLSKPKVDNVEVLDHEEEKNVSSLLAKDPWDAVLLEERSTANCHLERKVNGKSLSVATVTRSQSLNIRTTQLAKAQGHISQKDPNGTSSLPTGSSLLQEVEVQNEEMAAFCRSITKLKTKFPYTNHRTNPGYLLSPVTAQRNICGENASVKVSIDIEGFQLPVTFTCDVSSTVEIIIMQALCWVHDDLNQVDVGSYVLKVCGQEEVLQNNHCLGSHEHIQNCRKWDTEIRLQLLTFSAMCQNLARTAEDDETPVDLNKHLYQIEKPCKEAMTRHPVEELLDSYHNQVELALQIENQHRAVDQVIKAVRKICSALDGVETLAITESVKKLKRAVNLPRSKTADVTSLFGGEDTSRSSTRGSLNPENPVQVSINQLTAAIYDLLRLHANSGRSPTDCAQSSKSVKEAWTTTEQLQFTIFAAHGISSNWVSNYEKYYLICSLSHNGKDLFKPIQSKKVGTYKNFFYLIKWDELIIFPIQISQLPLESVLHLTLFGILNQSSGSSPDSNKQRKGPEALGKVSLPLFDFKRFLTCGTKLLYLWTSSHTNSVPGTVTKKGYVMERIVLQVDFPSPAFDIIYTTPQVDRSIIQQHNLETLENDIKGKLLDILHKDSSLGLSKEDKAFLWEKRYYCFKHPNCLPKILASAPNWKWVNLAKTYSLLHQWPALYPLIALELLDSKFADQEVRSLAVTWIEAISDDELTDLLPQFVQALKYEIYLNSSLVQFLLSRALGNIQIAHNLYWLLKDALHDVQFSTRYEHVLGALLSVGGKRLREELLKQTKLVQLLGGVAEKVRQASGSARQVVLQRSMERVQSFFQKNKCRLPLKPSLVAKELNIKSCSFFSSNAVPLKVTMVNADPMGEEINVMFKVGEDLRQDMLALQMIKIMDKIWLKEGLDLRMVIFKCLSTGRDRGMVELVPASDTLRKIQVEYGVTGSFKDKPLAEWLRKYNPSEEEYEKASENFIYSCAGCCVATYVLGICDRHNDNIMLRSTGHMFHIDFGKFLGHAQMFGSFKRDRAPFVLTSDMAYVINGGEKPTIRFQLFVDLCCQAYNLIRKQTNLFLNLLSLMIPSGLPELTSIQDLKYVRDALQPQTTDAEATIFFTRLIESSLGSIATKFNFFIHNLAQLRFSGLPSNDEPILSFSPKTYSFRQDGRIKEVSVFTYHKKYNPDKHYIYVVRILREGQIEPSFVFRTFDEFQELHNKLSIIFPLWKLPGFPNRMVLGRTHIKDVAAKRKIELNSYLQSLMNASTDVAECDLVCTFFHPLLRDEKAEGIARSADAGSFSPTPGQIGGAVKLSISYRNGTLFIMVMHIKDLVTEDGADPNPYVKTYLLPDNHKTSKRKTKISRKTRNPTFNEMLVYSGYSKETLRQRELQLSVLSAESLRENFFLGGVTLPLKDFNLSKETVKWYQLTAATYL
PIK3C2B (PI3K-C2 beta), sequence (O00750 whole entry): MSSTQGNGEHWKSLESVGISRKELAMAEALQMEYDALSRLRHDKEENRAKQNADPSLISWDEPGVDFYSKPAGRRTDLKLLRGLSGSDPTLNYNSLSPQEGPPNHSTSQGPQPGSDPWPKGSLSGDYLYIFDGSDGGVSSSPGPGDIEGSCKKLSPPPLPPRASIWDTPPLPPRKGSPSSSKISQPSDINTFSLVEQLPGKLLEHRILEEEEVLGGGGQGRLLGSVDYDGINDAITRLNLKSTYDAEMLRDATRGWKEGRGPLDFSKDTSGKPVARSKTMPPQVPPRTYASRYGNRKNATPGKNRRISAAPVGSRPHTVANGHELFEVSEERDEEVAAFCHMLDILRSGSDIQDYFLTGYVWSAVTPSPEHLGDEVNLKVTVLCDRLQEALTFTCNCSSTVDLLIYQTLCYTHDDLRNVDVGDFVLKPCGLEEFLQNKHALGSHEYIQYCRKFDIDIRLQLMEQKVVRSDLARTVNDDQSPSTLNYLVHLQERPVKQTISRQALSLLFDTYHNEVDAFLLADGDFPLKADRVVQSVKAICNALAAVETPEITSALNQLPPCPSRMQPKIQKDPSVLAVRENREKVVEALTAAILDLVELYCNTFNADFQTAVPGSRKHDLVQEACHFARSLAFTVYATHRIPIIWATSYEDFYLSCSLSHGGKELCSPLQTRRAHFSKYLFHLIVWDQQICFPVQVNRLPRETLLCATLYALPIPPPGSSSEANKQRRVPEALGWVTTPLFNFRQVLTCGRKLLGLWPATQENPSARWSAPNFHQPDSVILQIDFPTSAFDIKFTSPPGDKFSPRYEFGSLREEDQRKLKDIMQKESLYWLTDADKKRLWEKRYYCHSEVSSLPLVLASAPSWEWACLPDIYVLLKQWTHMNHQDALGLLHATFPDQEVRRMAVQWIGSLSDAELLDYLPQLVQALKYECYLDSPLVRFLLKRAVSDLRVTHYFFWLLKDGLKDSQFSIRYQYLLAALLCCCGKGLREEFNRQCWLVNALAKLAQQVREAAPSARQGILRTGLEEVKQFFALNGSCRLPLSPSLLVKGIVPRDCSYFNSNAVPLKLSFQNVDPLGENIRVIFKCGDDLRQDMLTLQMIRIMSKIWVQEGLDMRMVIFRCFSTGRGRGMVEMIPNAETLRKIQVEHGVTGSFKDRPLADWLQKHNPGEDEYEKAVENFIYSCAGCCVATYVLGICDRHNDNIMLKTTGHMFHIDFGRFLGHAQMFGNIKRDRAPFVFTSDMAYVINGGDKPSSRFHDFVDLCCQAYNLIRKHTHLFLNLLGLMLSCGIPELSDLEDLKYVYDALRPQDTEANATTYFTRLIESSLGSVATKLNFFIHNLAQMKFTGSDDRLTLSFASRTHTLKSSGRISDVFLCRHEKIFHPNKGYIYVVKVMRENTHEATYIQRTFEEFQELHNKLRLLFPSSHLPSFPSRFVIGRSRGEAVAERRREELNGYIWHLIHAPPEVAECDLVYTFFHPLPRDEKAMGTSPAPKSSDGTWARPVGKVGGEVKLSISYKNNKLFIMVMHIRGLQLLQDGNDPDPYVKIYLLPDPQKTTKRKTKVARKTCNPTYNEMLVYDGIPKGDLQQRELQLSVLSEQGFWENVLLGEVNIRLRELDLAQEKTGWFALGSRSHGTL
PIK3C2B, sequence (O00750 whole entry): as above

SMILES: Cc1c(Cn2c(C)nc(=O)c3sc(N4CCOCC4)nc32)cccc1C(F)(F)F
- selectivity in favor of PI3Kβ (Class I) (PIK3C2B; PI3Kβ over PIK3C2B): 166-fold selectivity in favor of PI3Kβ (Class I) (Lin et al. ACS Med. Chem. Lett. 2012, 3, 524-529)
- IC50 (PIK3C2B; literature value): 1000 nM
- IC50 (PI3Kβ): 6 nM

SMILES: CC[C@H](Nc1ncnc2[nH]cnc12)c1nc2cccc(F)c2c(=O)n1-c1ccccc1
- IC50 (PIK3C2B): 1000 nM

- selectivity over C2A (Class II isoform) (PIK3C2B (PI3K-C2 beta); PIK3C2B vs PIK3C2A IC50): 449-fold selectivity over
- inhibition at 51 pM (PIK3C2B (PI3K-C2 beta); [1]): 16%
- inhibition at 51 pM (PIK3C2B (PI3K-C2 beta); [2]): 17%
- inhibition at 0.000153 µM (PIK3C2B (PI3K-C2 beta); [1]): -3%
- inhibition at 0.000153 µM (PIK3C2B (PI3K-C2 beta); [2]): 8%
- inhibition at 0.00046 µM (PIK3C2B (PI3K-C2 beta); [1]): 10%
- inhibition at 0.00046 µM (PIK3C2B (PI3K-C2 beta); [2]): 21%
- inhibition at 0.00137 µM (PIK3C2B (PI3K-C2 beta); [1]): 21%
- inhibition at 0.00137 µM (PIK3C2B (PI3K-C2 beta); [2]): 33%
- inhibition at 0.0041 µM (PIK3C2B (PI3K-C2 beta); [1]): 58%
- inhibition at 0.0041 µM (PIK3C2B (PI3K-C2 beta); [2]): 27%
- inhibition at 0.0123 µM (PIK3C2B (PI3K-C2 beta); [1]): 61%
- inhibition at 0.0123 µM (PIK3C2B (PI3K-C2 beta); [2]): 49%
- inhibition at 0.037 µM (PIK3C2B (PI3K-C2 beta); [1]): 74%
- inhibition at 0.037 µM (PIK3C2B (PI3K-C2 beta); [2]): 82%
- inhibition at 0.111 µM (PIK3C2B (PI3K-C2 beta); [1]): 92%
- inhibition at 0.111 µM (PIK3C2B (PI3K-C2 beta); [2]): 90%
- inhibition at 0.333 µM (PIK3C2B (PI3K-C2 beta); [1]): 94%
- inhibition at 0.333 µM (PIK3C2B (PI3K-C2 beta); [2]): 93%
- inhibition at 1 µM (PIK3C2B (PI3K-C2 beta); [1]): 93%
- inhibition at 1 µM (PIK3C2B (PI3K-C2 beta); [2]): 95%
- IC50 (PIK3C2B (PI3K-C2 beta); [ATP] 10 uM): 9.57 nM
- inhibition at 0.00101 µM (PIK3C2A (PI3K-C2 alpha); read-out: % Inhibition point 1): 25%
- inhibition at 0.00101 µM (PIK3C2A (PI3K-C2 alpha); read-out: % Inhibition point 2): -12%
- inhibition at 0.00303 µM (PIK3C2A (PI3K-C2 alpha); read-out: % Inhibition point 1): -24%
- inhibition at 0.00303 µM (PIK3C2A (PI3K-C2 alpha); read-out: % Inhibition point 2): 3%
- inhibition at 0.0091 µM (PIK3C2A (PI3K-C2 alpha); read-out: % Inhibition point 1): -3%
- inhibition at 0.0091 µM (PIK3C2A (PI3K-C2 alpha); read-out: % Inhibition point 2): 16%
- inhibition at 0.0273 µM (PIK3C2A (PI3K-C2 alpha); read-out: % Inhibition point 1): 13%
- inhibition at 0.0273 µM (PIK3C2A (PI3K-C2 alpha); read-out: % Inhibition point 2): -4%
- inhibition at 0.082 µM (PIK3C2A (PI3K-C2 alpha); read-out: % Inhibition point 1): 0%
- inhibition at 0.082 µM (PIK3C2A (PI3K-C2 alpha); read-out: % Inhibition point 2): 11%
- inhibition at 0.247 µM (PIK3C2A (PI3K-C2 alpha); read-out: % Inhibition point 1): 15%
- inhibition at 0.247 µM (PIK3C2A (PI3K-C2 alpha); read-out: % Inhibition point 2): 6%
- inhibition at 0.741 µM (PIK3C2A (PI3K-C2 alpha); read-out: % Inhibition point 1): 17%
- inhibition at 0.741 µM (PIK3C2A (PI3K-C2 alpha); read-out: % Inhibition point 2): 30%
- inhibition at 2.222 µM (PIK3C2A (PI3K-C2 alpha); read-out: % Inhibition point 1): 46%
- inhibition at 2.222 µM (PIK3C2A (PI3K-C2 alpha); read-out: % Inhibition point 2): 36%
- inhibition at 6.667 µM (PIK3C2A (PI3K-C2 alpha); read-out: % Inhibition point 1): 55%
- inhibition at 6.667 µM (PIK3C2A (PI3K-C2 alpha); read-out: % Inhibition point 2): 46%
- inhibition at 20 µM (PIK3C2A (PI3K-C2 alpha); read-out: % Inhibition point 1): 81%
- inhibition at 20 µM (PIK3C2A (PI3K-C2 alpha); read-out: % Inhibition point 2): 78%
- IC50 (PIK3C2A (PI3K-C2 alpha)): 4300 nM
- hits in kinase binding screen (395 kinases): no hits other than PI3Ks
SMILES: CN(C)C(=O)c1ccc2c(c1)c(C[C@H]1COCCN1c1nc3c(s1)C(=O)NC(C)(C)C3)cn2C [Test Compound, 3-{[(3S)-4-(6,6-dimethyl-4-oxo-4,5,6,7-tetrahydro[1,3]thiazolo[5,4-c]pyridin-2-yl)morpholin-3-yl]methyl}-N,N,1-trimethyl-1H-indole-5-carboxamide]
